Assay results: US20060100173A1, “Ophthalmic solution” (priority 2004, published 2006)
Where a name gives a salt, the structure may show the parent alone.

Tested on: five organisms
Assay: Antimicrobial activity, sum of log drops of five organisms
Type: cell-based
Conditions: HA 1.7M relative to non-HA control and/or lower molecular weight HA compositions; Tris buffered

## CCCCC(CC)CNC(=N)NC(=N)NCCCCCCNC(=N)NC(=N)NCC(CC)CCCC (centres unmarked) [ALX, Alexidine Dihydrochloride]
  reduction of the sum of the kill level by HA of MW 1.7M: about 2 log

## poly[hexamethylene biguanide hydrochloride] [PHMB]
  reduction of the sum of the kill level by HA of MW 1.7M: about 4 log
